The results in this text go back to PMC9973256, “A Cysteine Pair Controls Flavin Reduction by Extracellular Cytochromes during Anoxic/Oxic Environmental Transitions” (mBio, 2023).

Holding throughout (assay type): binding
Experiment [1] concerns the target T1, MtrCsol (soluble MtrC) (Shewanella oneidensis, UniProt Q8EG34, C453S).
T1 construct: soluble form; lipid anchor site and signal peptide replaced by MtrB signal peptide; C-terminal StrepTactin tag; expressed in S. oneidensis delta-mtrC (LS661); decaheme
Description: […] NMR titration of FMN. Conditions: oxidized protein; 20 mM potassium phosphate pH 7.6, 100 mM KCl, 25 °C; slow exchange.

The target in experiment [2] is T2, MtrCsol (soluble MtrC) (Shewanella oneidensis, UniProt Q8EG34, C453A).
T2 construct: soluble form; lipid anchor site and signal peptide replaced by MtrB signal peptide; C-terminal StrepTactin tag; expressed in S. oneidensis delta-mtrC (LS661); decaheme
Description: copurification through anaerobic PD10 size exclusion column, flavin fluorescence. The note with it: 50 uM sodium dithionite (reduced FMN and heme), also with 1 mM DTT, no copurification without reductant.

Experiment [3] addresses T3, MtrCsol (soluble MtrC) (Shewanella oneidensis, UniProt Q8EG34).
T3 construct: soluble form; lipid anchor site and signal peptide replaced by MtrB signal peptide; C-terminal StrepTactin tag; expressed in S. oneidensis delta-mtrC (LS661); decaheme
T3 sequence (Q8EG34 26-671): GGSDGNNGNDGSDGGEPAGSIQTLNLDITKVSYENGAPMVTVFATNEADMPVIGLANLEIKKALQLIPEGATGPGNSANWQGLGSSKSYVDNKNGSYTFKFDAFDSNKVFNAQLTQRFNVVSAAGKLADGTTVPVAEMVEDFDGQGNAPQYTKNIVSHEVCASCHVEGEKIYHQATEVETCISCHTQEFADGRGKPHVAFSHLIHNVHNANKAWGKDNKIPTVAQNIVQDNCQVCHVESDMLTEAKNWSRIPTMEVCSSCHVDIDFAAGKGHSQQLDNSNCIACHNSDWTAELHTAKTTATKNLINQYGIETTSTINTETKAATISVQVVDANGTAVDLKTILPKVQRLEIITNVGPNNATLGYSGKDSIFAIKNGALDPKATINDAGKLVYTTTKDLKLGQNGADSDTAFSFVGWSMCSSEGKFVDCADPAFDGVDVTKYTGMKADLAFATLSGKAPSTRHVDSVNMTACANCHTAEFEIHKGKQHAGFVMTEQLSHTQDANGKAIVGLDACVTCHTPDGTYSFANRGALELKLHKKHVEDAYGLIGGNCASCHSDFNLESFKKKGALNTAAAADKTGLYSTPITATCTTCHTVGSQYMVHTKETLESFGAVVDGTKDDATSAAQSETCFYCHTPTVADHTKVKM
The description is as above. Conditions: 1 mM DTT (disulfide reduced), no copurification without DTT or with 50 uM dithionite only.

T1 sequence (Q8EG34 entry or part of it C453S): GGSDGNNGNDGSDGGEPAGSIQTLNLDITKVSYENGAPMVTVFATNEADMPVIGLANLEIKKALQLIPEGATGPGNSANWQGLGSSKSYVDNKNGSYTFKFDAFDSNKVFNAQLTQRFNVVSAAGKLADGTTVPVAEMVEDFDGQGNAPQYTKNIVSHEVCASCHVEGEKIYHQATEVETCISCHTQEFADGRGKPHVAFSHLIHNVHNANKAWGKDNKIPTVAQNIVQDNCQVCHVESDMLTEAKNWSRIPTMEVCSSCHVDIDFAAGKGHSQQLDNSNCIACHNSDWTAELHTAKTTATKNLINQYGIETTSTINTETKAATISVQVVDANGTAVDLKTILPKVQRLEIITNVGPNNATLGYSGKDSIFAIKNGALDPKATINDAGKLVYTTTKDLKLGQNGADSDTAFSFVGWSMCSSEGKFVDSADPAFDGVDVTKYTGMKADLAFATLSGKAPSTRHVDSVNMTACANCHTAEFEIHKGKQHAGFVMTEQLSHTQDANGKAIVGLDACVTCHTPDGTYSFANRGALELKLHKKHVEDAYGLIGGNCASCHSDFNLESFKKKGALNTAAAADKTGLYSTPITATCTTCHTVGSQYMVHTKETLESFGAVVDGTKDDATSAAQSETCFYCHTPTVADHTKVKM
T2 sequence (Q8EG34 entry or part of it C453A): as the sequence (Q8EG34 entry or part of it C453S) above, with S428A counted along it

`Cc1cc2nc3c(=O)[nH]c(=O)nc-3n(C[C@H](O)[C@H](O)[C@H](O)COP(=O)(O)O)c2cc1C` [FMN]: the “31P NMR titration of FMN” value in experiment [1] is recorded as “signal of FMN upon exposure to oxidized MtrCC453Ssol was monitored”. For the same compound, the “copurification through anaerobic PD10 size exclusion column, flavin fluorescence” value is reported as “revealed copurification of FMN with MtrCC453Asol but not MtrCsol” in experiment [2] and “showing that MtrCC453Asol would form a similar FMN complex to MtrCsol in the presence of DTT” in experiment [3].
